Results: patent US20250244310A1, “METHODS OF IDENTIFICATION AND TARGETING OF MASTER KINASES IN CANCER” (The Trustees of Columbia University in the City of New York, priority 2022, published 2025)

Tests used:
[1] = system: phosphorylation of PKCδ on tyr-311; experiment: Western blot of GPM PDOs incubated with IGF-I, IGF-II or insulin; type: cell-based, human; details: IGF-I 10 ng/ml, IGF-II 10 ng/ml, insulin 100 ng/ml, FIGS. 14b, c
Text: (§1) V9131), and j-actin 1:10,000 (Sigma, no. A5441).

PPR GBM PDOs = experiment: Irradiation-drug combination viability, PPR PDOs; type: cell-based, human
Protocol: (§2) Cells were cultured in DMEM/F12 medium supplemented with N-2, B-27, EGF and FGF. Cells were plated in 130 μl in opaque white 96-well plates. Twenty-four hrs later cells were treated with 3-fold serial dilutions of compounds as indicated in six replicates for 72 hrs. Viability was determined using CellTiterGlo assay reagent (Promega, G7570) and GloMax-Multi+ Microplate Multimode Reader (Promega). For the irradiation-drug combination treatment, PDOs cells were plated in 96 well plates 24 hrs before treatment. Cells were treated with 3-fold serial dilutions of M3814 two hrs before exposure to various irradiation doses (2, 4, 8 Gy at 0.7 Gy/min) from a ^137Cs source (GammaCell 40 irradiator, Teratronics). Mock irradiated cells were cultured in parallel. Viability was determined 96 hrs later using CellTiterGlo assay reagent (Promega, G7570) and GloMax-Multi+ Microplate Multimode Reader (Promega). Data are mean±s.d. of the viability ratio from 6 observations in 8 PPR and 8 GPM PDOs. Experiments were performed at least twice with similar results. Clonogenic assays for the evaluation of irradiation-drug combination were performed in 96 well plates. Each experimental point was plated in 3 independent 96 well plates. The number of wells containing PDO spheres were scored and the value of control untreated cell was considered 100% clonogenicity for the specific PDO. […]

PPR and GPM PDOs = experiment: Clonogenic assay for irradiation-drug combination; type: cell-based, human; details: two PPR and GPM PDOs, irradiation plus nedisertib; FIG. 15b
Protocol: as §2

γH2AX foci = experiment: Immunofluorescence analysis of γH2AX foci in PPR PDO cells; type: cell-based, human; details: IR 4 Gy plus nedisertib 556 nM, 0-24 hr, FIG. 5m
Protocol: Cells were fixed with 4% paraformaldehyde, permeabilized with cold methanol for 90 seconds at 4° C., and blocked with 5% BSA, 0.05% Triton X-100 in PBS for 30 minutes. Cells were exposed to primary antibody phospho-H2AX 1:500 (S139, CST, #2577) for one hour at room temperature followed by Cy3-conjugated anti rabbit (Invitrogen, A10520) for one hour at room temperature. Nuclei were stained with DAPI (Sigma). Images were acquired using a Nikon Ti Eclipse inverted microscope for spinning-disk confocal microscopy equipped with a Plan Apochromat 60× oil/1.4 NA DIC objective. Counting of TH2AX foci in individual nuclei were analyzed by ImageJ (NIH, Bethesda, USA) by specific in-built find Maxima>Prominence>Point Selection plug-in. Minimum 50 nuclei in at least ten representative images were included for analysis in each treatment group.

[2] = system: phosphorylation of serine-343 of NBS1 and serine-824 of KAP1; experiment: Western blot of PPR PDO cells, irradiation plus nedisertib: double-strand break markers; type: cell-based, human; details: PPR PDOs, until 24 hours after irradiation, FIG. 5l
Text: as §1

GPM PDOs = experiment: Irradiation-drug combination viability, GPM PDOs; type: cell-based, human; details: eight GPM PDOs; FIG. 5k
Protocol: as §2

[3] = system: serine-2056 phosphorylation of DNA-PKcs; details: irradiated PPR PDO cells; FIG. 5l
Protocol: Cells were lysed in RIPA buffer (50 mM Tris-HCl pH 7.5, 150 mM NaCl, 1 mM EDTA, 1% NP40, 0.5% sodium dexoycholate, 0.1% sodium dodecyl sulfate, 1.5 mM Na3VO4, 50 mM sodiumfluoride, 10 mM sodium pyrophosphate, 10 mM β-glycerolphosphate and EDTA-free protease inhibitor cocktail; Roche). Lysates briefly sonicated, cleared by centrifugation at 15,000 r.p.m. for 15 min at 4° C., separated by SDS-polyacrylamide gel electrophoresis and transferred to polyvinylidene difluoride membrane. Membranes were blocked in Tris-buffered saline with 5% nonfat milk and 0.1% Tween 20 and probed with primary antibodies overnight at 4° C. Antibodies0 and concentrations were as follows: p-DNA-PK 1:1,000 (Ser2056, CST, #68716), DNA-PK 1:1,000 (CST, #38168), p-NBS1 1:1,000 (Ser343, CST, #3001), NBS1 1:1,000 (CST, #81234), p-KAP1 1:1,000 (Ser824, Abcam, ab133440), KAP1 1:1,000 (Abcam, ab109287), p-CHK1 (Ser317, CST, #12302), CHK1 (CST, #2360), p-PKCδ 1:1,000 (Tyr311, CST, #20555), PKCδ 1:1,000 (CST, #96165), p-STAT3 1:1,000 (Tyr705, CST, #91455), STAT3 1:1,000 (CST, #49045) p-AKT 1:1,000 (Ser473, CST, #40605), p-AKT 1:1,000 (Thr308, CST, #13038S), AKT 1:1,000 (CST, #49615), p-ERK1/2 1:1,000 (Thr202/Tyr204, CST, #4370), ERK1/2 1:1,000 (CST, #9102), GAPDH 1:10,000 (Abcam, ab9484), Vinculin 1:10,000 (Sigma, no. V9131), and j-actin 1:10,000 (Sigma, no. A5441). […]

BRCA cell lines = experiment: DepMap menadione survival ratio, BRCA cell lines; type: cell-based; details: 26 BRCA cell lines from DepMap; p=0.008
Text: (§3) We used the BRCA and LUSC cell lines cohorts from DepMap for which both RNA-Seq expression and menadione survival ratio from PRISM Repurposing Primary Screen were available (n=26 for BRCA and n=71 for LUSC)^94. For each cell line, we used the transcriptomic profile to calculated the NES of the four functional GBM subtypes by MWW-GST using gene signatures obtained from the analysis of TCGA samples. Each cell line was classified according the highest subtype activity (NES). We assessed the difference in survival ratio between the mitochondrial cell lines and the others using two-sided Student t-test, unequal variance.

LUSC cell lines = experiment: DepMap menadione survival ratio, LUSC cell lines; type: cell-based; details: 71 LUSC cell lines from DepMap; p=0.076
Text: as §3

GPM PDO cells = experiment: Colony-forming (clonogenic) assay of GPM PDO cells treated with BJE6-106; type: cell-based, human; details: FIG. 5c
Protocol: Cell growth and clonogenic assay. Time course analysis of the cellular growth of shPRKCD infected PDOs or the empty vector was performed by plating 4,500 cells per well in 96-well plates. Viability was determined using CellTiterGlo assay reagent (Promega, G7570) and the GloMax-Multi+ Microplate Multimode Reader (Promega). Data are mean±s.d. of five replicates, and experiments were repeated twice. For clonogenic assay of PDO cells treated with increasing concentration of BJE6-106, 1,500 cells were plated in 6-well plates in triplicate. Cells were fixed in methanol and stained with crystal violet 2 weeks later. Colonies with more than 50 cells were scored. Data are mean±s.d. of triplicate observations from one representative experiment. Experiments were repeated twice.

[4] = system: AKT-ser-473 and STAT3-tyr-705 phosphorylation; experiment: Western blot of GPM PDO cells treated with BJE6-106; type: cell-based, human; details: BJE6-106 at 50 µM, time course, FIG. 5d
Text: as §1

“insulin: hormone used to stimulate GPM PDOs (100 ng/ml)” was tested, and the “phosphorylation of PKCδ on tyr-311” value [1] was “induced phosphorylation of PKCδ on tyr-311”.
For “IGF2: growth factor used to stimulate GPM PDOs (10 ng/ml)”, the “phosphorylation of PKCδ on tyr-311” value [1] was “induced phosphorylation of PKCδ on tyr-311”.
With “IGF1: growth factor used to stimulate GPM PDOs (10 ng/ml)” the “phosphorylation of PKCδ on tyr-311” value [1] was “induced phosphorylation of PKCδ on tyr-311”.
`COc1ccc([C@@H](O)c2cc(-c3ncnc4cc(N5CCOCC5)ccc34)c(F)cc2Cl)nn1` [nedisertib] was tested, and the “tumor cell viability, nedisertib-IR combination compared to each individual treatment” value (PPR GBM PDOs; eight PPR GBM PDOs, FIG. 5k) was “marked reduction of tumor cell viability”, the “radiation dose enhancement factor (DEF)” value (PPR GBM PDOs; six of the eight PPR PDOs, even at the lowest concentrations of nedisertib) was > 2 and the “radiosensitivity by clonogenic assay” value (PPR and GPM PDOs) was “confirmed these results”. For the same compound, the “number of γH2AX foci” value (γH2AX foci) was “remained elevated throughout the course of the experiment”, the “phosphorylation of serine-343 of NBS1 and serine-824 of KAP1 (unrepaired DNA damage)” value [2] was “sustained phosphorylation of serine-343 of NBS1 and serine-824 of KAP1” and the “effect of nedisertib-IR combination on viability” value (GPM PDOs) was “virtually ineffective”. For the same compound, the “serine-2056 phosphorylation of DNA-PKcs” value [3] was “inhibited serine-2056 phosphorylation of DNA-PKcs”.
`CC1=CC(=O)c2ccccc2C1=O` [menadione] was tested, and the “menadione survival ratio, difference between mitochondrial cell lines versus the others, log2(FC)” value (BRCA cell lines) was −1.31 and the “menadione survival ratio, difference between mitochondrial cell lines versus the others, log2(FC)” value (LUSC cell lines) was −0.63.
In the case of `CC1(C)C=Cc2cc(CCn3c4ccccc4c4ccccc43)cc(C=O)c2O1` [BJE-10676], the colony formation (GPM PDO cells) is reported as “dose-dependent inhibition of colony formation” and the “AKT-ser-473 and STAT3-tyr-705 phosphorylation” value [4] is reported as “time-dependent decrease of AKT-ser-473 and STAT3-tyr-705 phosphorylation”.
